What was measured:
scopthalmus = experiment: Toxicity to fish, Part B of the OSPAR Protocols; type: in vivo
Source text: (§1) According to still other embodiments described herein, a disulfonate salt of 2,4-pentanedione is provided. According to one such embodiment, the salt comprises 2,4-pentanedione-1,5-sodium disulfonate. According to another such embodiment, a disulfonate salt of 2,4-pentanedione has an environmentally acceptable toxicity. As used herein, the term “environmentally acceptable toxicity” means that, when tested according to procedures that are the same as or equivalent to those set forth by the OSPAR Guidelines for Completing the Harmonised Offshore Chemical Notification Format (HOCNF) (References number: 2003-1) that were in effect on Dec. 31, 2004, the salt is determined to have a toxicity of greater than about 10,000 mg/L for an algae (skeletonema costatum), a crustacean (acartia tonsa), a fish (scopthalmus) and a sediment reworker (corophium volutator). […]
(§2) In this Example 3, the toxicity results for the skeletonema costatum were determined according to ISO (International Organization for Standardization) 10253, the protocol for which is known to those of ordinary skill in the art, and is also the protocol required under the above-referenced HOCNF Guidelines. The toxicity results for the acartia tonsa were determined according to ISO 14669, the protocol for which is known to those of ordinary skill in the art. […]

acartia tonsa = experiment: Toxicity to crustacean, ISO 14669; type: in vivo
Source text: as §1, §2

corophium volutator = experiment: Toxicity to sediment reworker, Part B of the OSPAR Protocols; type: in vivo
Source text: as §1, §2

[1] = Solubility of the salt compared to the free acid (methanol rinse); type: physicochemical
Source text: The neutralized product is then rinsed with a rinsing agent, for example, methanol, to remove other acid by-products, such as hydrochloric and sulfuric acids, and/or mono-sulfonic acids, and/or to remove other salts formed by the neutralization, such as salts of hydrochloric and sulfuric acids, and/or mono-sulfonic acids. It was discovered that […] solvents, such as methanol, would remove the by-product acids and/or salts, while leaving the salt of 2,4-pentanedione-1,5 disulfonic acid primarily undissolved.
The neutralized product was then rinsed several times with methanol to remove by-product acids, or any salts formed therefrom, while leaving the 2,4-pentanedione-1,5-sodium disulfonate primarily undissolved. […] The rinsed product was dried in a vacuum oven and filtered through a 300 mesh screen to afford a flowing pale orange/red powder. The resulting powder was 2,4-pentanedione-1,5-sodium disulfonate.

skeletonema costatum = experiment: Toxicity to algae, ISO 10253 (HOCNF); type: in vivo
Source text: as §1, §2

With `O=C(CC(=O)CS(=O)(=O)[O-])CS(=O)(=O)[O-].[Na+].[Na+]` [2,4-pentanedione-1,5-sodium disulfonate] the “toxicity (amount required to kill or incapacitate half the test population)” value (shortened to “toxicity”) (scopthalmus) was “greater than 10,000 mg/L”, the “toxicity” value (acartia tonsa) was “greater than 10,000 mg/L” and the “toxicity” value (corophium volutator) was “greater than 10,000 mg/L”. The “solubility compared to the 2,4-pentanedione-1,5-disulfonic free acid” value [1] was “significantly less soluble” and the “toxicity” value (skeletonema costatum) was “greater than 10,000 mg/L”.

Reference: US7273949B2, “Salts and methods for their preparation” (Halliburton Energy Services, Inc., priority 2005, dated 2007)
